Source: patent publication US5036054A, “Renin inhibitors containing alpha-heteroatom amino acids” (Warner-Lambert Company, priority 1988, dated 1991)

Each compound was assayed against T1, renin (Homo sapiens, UniProt P00797) (assay: in vitro renin inhibitory activity, radioimmunoassay for angiotensin I). Conditions: 10^-6 molar test compound; renin incubated 2 hours at 37° with substrate angiotensinogen; angiotensin I by radioimmunoassay.
T1 sequence (P00797 67-406): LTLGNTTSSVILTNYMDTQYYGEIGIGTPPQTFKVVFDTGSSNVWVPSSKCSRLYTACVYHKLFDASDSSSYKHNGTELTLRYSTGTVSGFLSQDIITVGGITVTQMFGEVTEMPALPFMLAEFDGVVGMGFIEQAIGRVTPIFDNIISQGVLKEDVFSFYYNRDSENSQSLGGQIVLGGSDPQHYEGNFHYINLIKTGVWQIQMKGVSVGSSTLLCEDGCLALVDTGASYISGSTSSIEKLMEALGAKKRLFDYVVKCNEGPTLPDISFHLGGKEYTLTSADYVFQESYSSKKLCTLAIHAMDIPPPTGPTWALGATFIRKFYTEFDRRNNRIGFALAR
Format: biochemical
Method: The effectiveness of the aforementioned compounds is determined by a test for in vitro renin inhibitory activity. This activity is determined by a standard radioimmunoassay for angiotensin I. In this assay the enzyme, renin, incubated for 2 hours at 37° in the presense of a substrate, angiotensinogen, generates the product, angiotensin I. Test compounds are added to the incubation mixture. Relative activity is reported as the percent inhibition at 10^-6 molar concentration.
In the case of `CCC(C)CNC(=O)CC(O)C(CC(C)C)NC(=O)C(NC(=O)C(Cc1cccc2ccccc12)Cc1cccc2ccccc12)SC(C)C` (single isomer, unassigned) [DNMANHCH(SCH(CH3)2)COSTANHCH2 CH(CH3)CH2 CH3 (slow isomer), DNMA-NHCH(SCH(CH3)2)CO-STA-NHCH2 CH(CH3)CH2 CH3], the “Activity % Inhibition @ 10^-6 M” value is reported as 26%.
With “DNMA-NHCH(NH(CH2)3 NHCSNHCH3)CO-STA-NHCH2 CH(CH3)CH2 CH3” the “Activity % Inhibition @ 10^-6 M” value was 36%.
In the case of `CCC(C)CNC(=O)CC(O)C(CC(C)C)NC(=O)C(NC(=O)C(Cc1cccc2ccccc12)Cc1cccc2ccccc12)Sc1ccccc1` (centres unmarked) [DNMANHCH(SPh)COSTANHCH2 CH(CH3)CH2 CH3, DNMA-NHCH(SPh)CO-STA-NHCH2 CH(CH3) CH2 CH3], the “Activity % Inhibition @ 10^-6 M” value is reported as 40%.
With `CCC(C)CNC(=O)C[C@H](O)[C@H](CC(C)C)NC(=O)C(NC(=O)C(Cc1cccc2ccccc12)Cc1cccc2ccccc12)OC` (some centres unmarked) [DNMANHCH(OCH3)COSTANHCH2 CH(CH3)CH2 CH3, DNMA-NHCH(OCH3)CO-STA-NHCH2 CH(CH3)CH2 CH3] the “Activity % Inhibition @ 10^-6 M” value was 90%.
For `CCOC(NC(=O)C(Cc1cccc2ccccc12)Cc1cccc2ccccc12)C(=O)N[C@@H](CC(C)C)[C@@H](O)CC(=O)NCC(C)CC` (single isomer, unassigned) [DNMANHCH(OC2 H5)COSTANHCH2 CH(CH3)CH2 CH3 (fast isomer), DNMA-NHCH(OC2 H5)CO-STA-NHCH2 CH(CH3)CH2 CH3], the “Activity % Inhibition @ 10^-6 M” value was 100%.
“DNMA-NHCH(NH2)CO-STA-NHCH2 CH(CH3)CH2 CH3 [DNMANHCH(NH2)COSTANHCH2 CH(CH3)CH2 CH3 (slow isomer)]” was tested, and the “Activity % Inhibition @ 10^-6 M” value was 54%.
In the case of `CCC(C)CNC(=O)CC(O)C(CC(C)C)NC(=O)C(NC(=O)C(Cc1cccc2ccccc12)Cc1cccc2ccccc12)SC(C)C` (single isomer, unassigned) [DNMANHCH(SCH(CH3)2)COSTANHCH2 CH(CH3)CH2 CH3 (fast isomer), DNMA-NHCH(SCH(CH3)2)CO-STA-NHCH2 CH(CH3)CH2 CH3], the “Activity % Inhibition @ 10^-6 M” value is reported as 87%.
In the case of `CCC(C)CNC(=O)CC(O)C(CC(C)C)NC(=O)C(NC(=O)C(Cc1cccc2ccccc12)Cc1cccc2ccccc12)Nc1ccccc1` (centres unmarked) [DNMANHCH(NHPh)COSTANHCH2 CH(CH3)CH2 CH3, DNMA-NHCH(NHPh)CO-STA-NHCH2 CH(CH3)CH2 CH3], the “Activity % Inhibition @ 10^-6 M” value is reported as 56%.
`CCC(C)CNC(=O)CC(O)C(CC(C)C)NC(=O)C(NC(=O)C(Cc1cccc2ccccc12)Cc1cccc2ccccc12)SC` (centres unmarked) [DNMANHCH(SCH3)COSTANHCH2 CH(CH3)CH2 CH3, DNMA-NHCH(SCH3)CO-STA-NHCH2 CH(CH3)CH2 CH3] was tested, and the “Activity % Inhibition @ 10^-6 M” value was 86%.
`CCOC(=O)NC(NC(=O)C(Cc1cccc2ccccc12)Cc1cccc2ccccc12)C(=O)NC(CC(C)C)C(O)CC(=O)NCC(C)CC` (centres unmarked) [DNMA-NHCH(NHCO2 Et)CO-STA-NHCH2 CH(CH3)CH2 CH3] was tested, and the “Activity % Inhibition @ 10^-6 M” value was 40%.
In the case of `CCC(C)CNC(=O)CC(O)C(CC(C)C)NC(=O)C(NC(=O)C(Cc1cccc2ccccc12)Cc1cccc2ccccc12)N(C)C` (single isomer, unassigned) [DNMANHCH(N(CH3)2)COSTANHCH2 CH(CH3)CH2 CH3 (slow isomer), DNMA-NHCH(N(CH3)2 CO-STA-NHCH2 CH(CH3)CH2 CH3], the “Activity % Inhibition @ 10^-6 M” value is reported as 55%.
“DNMA-NHCH(NHCH(CH3)2)CO-STA-NHCH2 CH(CH3)CH2 CH3 [DNMA-NHCH(NHCH(CH3)2)COSTANHCH2 CH(CH3)CH2 CH3 (slow isomer)]” was tested, and the “Activity % Inhibition @ 10^-6 M” value was 60%.
“DNMA-NHCH(OC2 H5)CO-STA-NHCH2 CH(CH3)CH2 CH3 [DNMANHCH(OC2 H5)COSTANHCH2 CH(CH3)CH2 CH3 (slow isomer)]” was tested, and the “Activity % Inhibition @ 10^-6 M” value was 15%.
For `CCC(C)CNC(=O)CC(O)C(CC(C)C)NC(=O)C(NC(C)=O)NC(=O)C(Cc1cccc2ccccc12)Cc1cccc2ccccc12` (centres unmarked) [DNMA-NHCH(NHCOCH3)CO-STA-NHCH2 CH(CH3)CH2 CH3], the “Activity % Inhibition @ 10^-6 M” value was 39%.
For `CCC(C)CNC(=O)CC(O)C(CC(C)C)NC(=O)C(NC(=O)C(Cc1cccc2ccccc12)Cc1cccc2ccccc12)[S+](C)[O-]` (centres unmarked) [DNMANHCH(SOCH3)COSTANHCH2 CH(CH3)CH2 CH3, DNMA-NHCH(SOCH3)CO-STA-NHCH2 CH(CH3)CH2 CH3], the “Activity % Inhibition @ 10^-6 M” value was 35%.
With “DNMA-NHCH(NHC2 H5)CO-STA-NHCH2 CH(CH3) CH2 CH3 [DNMANHCH(NHC2 H5)COSTANHCH2 CH(CH3)CH2 CH3 (slow isomer)]” the “Activity % Inhibition @ 10^-6 M” value was 71%.
In the case of `CCC(C)CNC(=O)CC(O)C(CC(C)C)NC(=O)C(N)NC(=O)C(Cc1cccc2ccccc12)Cc1cccc2ccccc12` (single isomer, unassigned) [DNMANHCH(NH2)COSTANHCH2 CH(CH3)CH2 CH3 (fast isomer), DNMA-NHCH(NH2)CO-STA-NHCH2 CH(CH3)CH2 CH3], the “Activity % Inhibition @ 10^-6 M” value is reported as 9%.
